Test system: 5-α reductase enzyme
Experiment: Inhibition of 5-α reductase activity: conversion of [4-14C]testosterone to DHT by normal human dermal fibroblasts (NHDF)
Format: cell-based

| Compound | 5-α reductase enzyme activity (reduced to) (75 μM test compound, 24 h pre-incubation then 24 h with radiolabelled testosterone, DHT quantified by TLC/phosphorImager) [%] | inhibition of 5-α reductase activity (in words) (dose-effect observed, FIG. 1) | testosterone metabolisation to DHT / 5-α reductase activity (in words) (positive control tested at 10 μM) |
| --- | --- | --- | --- |
| CCCCCCCCCCCC(=O)OCC(O)CO (stereo not drawn) [2,3-dihydroxypropyl dodecanoate] | 66 | inhibition of 5-α reductase activity is also observed | – |
| CC(C)(C)NC(=O)[C@H]1CC[C@H]2[C@@H]3CC[C@H]4NC(=O)C=C[C@]4(C)[C@H]3CC[C@]12C [finasteride, reference compound] | – | – | lowers testosterone metabolisation to DHT significantly |
